Results published in ChEMBL document CHEMBL6083204, “Synthesis of a celastrol derivative as a cancer stem cell inhibitor through regulation of the STAT3 pathway for treatment of ovarian cancer” (RSC Med Chem, 2024).
Active and inactive are the calls of the source. The rule behind the calls is not given here.

Assays:
SK-OV-3 [1] = experiment: Antitumor activity against human SK-OV-3 cells xenografted in BALB/c mouse assessed as reduction in tumor volume at 5 mg/kg,ip administrated for 21 consecutive days relative to control; assay type: functional; set-up: scale not given: the % may be the effect or the level left
A2780 [2] = experiment: Antiproliferative activity against human A2780 cells assessed as decrease in CD44 positive CD24 negative cells expression at 0.2 uM incubated for 24 hrs by FITC staining based flow cytometry (reference value: 28.13 %); assay type: functional; set-up: scale not given: the % may be the effect or the level left
A2780 [3] = experiment: Induction of apoptosis in human A2780 cells assessed as late apoptotic cells at 0.8 uM incubated for 24 hrs by Annexin V-FITC/7-AAD staining based flow cytometry (reference value: 2.1 %); assay type: functional
A2780 [4] = experiment: Induction of apoptosis in human A2780 cells assessed as increase in caspase-8 activity at 0.4 uM incubated for 24 hrs by flow cytometry (reference value: 1.2 %); assay type: functional
A2780 [5] = experiment: Induction of apoptosis in human A2780 cells assessed as early apoptotic cells at 0.8 uM incubated for 24 hrs by Annexin V-FITC/7-AAD staining based flow cytometry (reference value: 1.9 %); assay type: functional
A2780 [6] = experiment: Induction of cell cycle arrest in human A2780 cells assessed as reduction of Cyclin D1 expression at 0.2 uM incubated for 24 hrs by flow cytometry (reference value: 92.5 %); assay type: functional; set-up: scale not given: the % may be the effect or the level left
SK-OV-3 [7] = experiment: Induction of apoptosis in human SK-OV-3 cells assessed as increase in caspase-3 activity at 0.2 uM incubated for 24 hrs by flow cytometry (reference value: 4.6 %); assay type: functional
A2780 [8] = experiment: Induction of ROS production in human A2780 cells assessed as increase in fluorescence intensity incubated for 24 hrs by DCFH-DA staining based flow cytometry; assay type: functional, cell-based
SK-OV-3 [9] = experiment: Induction of apoptosis in human SK-OV-3 cells assessed as necrotic cells at 0.4 uM incubated for 24 hrs by Annexin V-FITC/7-AAD staining based flow cytometry (reference value: 0.6 %); assay type: functional
A2780 [10] = experiment: Induction of cell cycle arrest in human A2780 cells assessed as accumulation of cells at G2/M phase at 0.4 uM incubated for 24 hrs by BrdU staining based flow cytometry (reference value: 6.2 %); assay type: functional
SK-OV-3 [11] = experiment: Induction of apoptosis in human SK-OV-3 cells assessed as early apoptotic cells at 0.4 uM incubated for 24 hrs by Annexin V-FITC/7-AAD staining based flow cytometry (reference value: 1.6 %); assay type: functional
SK-OV-3 [12] = experiment: Induction of apoptosis in human SK-OV-3 cells assessed as increase in caspase-3 activity at 0.4 uM incubated for 24 hrs by flow cytometry (reference value: 4.6 %); assay type: functional
A2780 [13] = experiment: Induction of apoptosis in human A2780 cells assessed as necrotic cells at 0.4 uM incubated for 24 hrs by Annexin V-FITC/7-AAD staining based flow cytometry (reference value: 1 %); assay type: functional
SK-OV-3 [14] = experiment: Induction of cell cycle arrest in human SK-OV-3 cells assessed as reduction of CDK2 expression at 0.8 uM incubated for 24 hrs by flow cytometry (reference value: 94.4 %); assay type: functional; set-up: scale not given: the % may be the effect or the level left
SK-OV-3 [15] = experiment: Induction of apoptosis in human SK-OV-3 cells assessed as increase in caspase-8 activity at 0.2 uM incubated for 24 hrs by flow cytometry (reference value: 2.5 %); assay type: functional
SK-OV-3 [16] = experiment: Induction of cell cycle arrest in human SK-OV-3 cells assessed as accumulation of cells at G0/G1 phase at 0.2 uM incubated for 24 hrs by BrdU staining based flow cytometry (reference value: 59.8 %); assay type: functional
SK-OV-3 [17] = experiment: Induction of cell cycle arrest in human SK-OV-3 cells assessed as reduction of Cyclin D1 expression at 0.2 uM incubated for 24 hrs by flow cytometry (reference value: 93.8 %); assay type: functional; set-up: scale not given: the % may be the effect or the level left
[18] = target: Signal transducer and activator of transcription 3 (Homo sapiens) (UniProt P40763); experiment: Inhibition of STAT3 in human SK-OV-3 cells assessed as downregulation of STAT3 phosphorylation at Tyr705 residue in nuclei at 0.2 uM incubated for 24 hrs by Hoechst33342 staining based immunofluorescence assay; assay type: cell-based
Sequence of Signal transducer and activator of transcription 3 (Homo sapiens) (P40763 whole entry): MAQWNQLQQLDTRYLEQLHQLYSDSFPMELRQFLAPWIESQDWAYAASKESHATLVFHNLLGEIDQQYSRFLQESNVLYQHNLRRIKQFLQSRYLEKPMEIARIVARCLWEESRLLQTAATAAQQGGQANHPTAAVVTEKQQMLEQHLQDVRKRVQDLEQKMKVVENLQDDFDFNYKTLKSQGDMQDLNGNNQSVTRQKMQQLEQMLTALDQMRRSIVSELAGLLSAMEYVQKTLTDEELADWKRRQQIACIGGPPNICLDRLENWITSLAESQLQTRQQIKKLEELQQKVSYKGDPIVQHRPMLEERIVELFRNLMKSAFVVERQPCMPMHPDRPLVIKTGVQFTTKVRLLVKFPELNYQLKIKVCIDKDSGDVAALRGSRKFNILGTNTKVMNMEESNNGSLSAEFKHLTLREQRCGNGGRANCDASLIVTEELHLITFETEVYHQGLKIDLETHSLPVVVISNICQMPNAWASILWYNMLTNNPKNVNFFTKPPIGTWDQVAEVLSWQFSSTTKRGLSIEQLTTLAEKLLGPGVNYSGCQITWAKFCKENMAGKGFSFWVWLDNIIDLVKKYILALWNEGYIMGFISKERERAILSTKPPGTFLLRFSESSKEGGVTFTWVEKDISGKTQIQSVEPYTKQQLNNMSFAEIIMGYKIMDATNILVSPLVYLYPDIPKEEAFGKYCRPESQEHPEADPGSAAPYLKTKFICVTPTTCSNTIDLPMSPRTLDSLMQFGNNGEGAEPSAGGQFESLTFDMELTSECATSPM

SK-OV-3 [19] = experiment: Induction of apoptosis in human SK-OV-3 cells assessed as increase in caspase-8 activity at 0.8 uM incubated for 24 hrs by flow cytometry (reference value: 2.5 %); assay type: functional
A2780 [20] = experiment: Induction of apoptosis in human A2780 cells assessed as increase in caspase-3 activity at 0.2 uM incubated for 24 hrs by flow cytometry (reference value: 1.5 %); assay type: functional
A2780 [21] = experiment: Induction of apoptosis in human A2780 cells assessed as necrotic cells at 0.2 uM incubated for 24 hrs by Annexin V-FITC/7-AAD staining based flow cytometry (reference value: 1 %); assay type: functional
A2780 [22] = experiment: Induction of apoptosis in human A2780 cells assessed as increase in caspase-8 activity at 0.2 uM incubated for 24 hrs by flow cytometry (reference value: 1.2 %); assay type: functional
A2780 [23] = experiment: Induction of apoptosis in human A2780 cells assessed as viable cells at 0.4 uM incubated for 24 hrs by Annexin V-FITC/7-AAD staining based flow cytometry (reference value: 95 %); assay type: functional; settings: read-out: Activity
A2780 [24] = experiment: Induction of apoptosis in human A2780 cells assessed as necrotic cells at 0.8 uM incubated for 24 hrs by Annexin V-FITC/7-AAD staining based flow cytometry (reference value: 1 %); assay type: functional
SK-OV-3 [25] = experiment: Induction of cell cycle arrest in human SK-OV-3 cells assessed as reduction of CDK4 expression at 0.2 uM incubated for 24 hrs by flow cytometry (reference value: 66.8 %); assay type: functional; set-up: scale not given: the % may be the effect or the level left
SK-OV-3 [26] = experiment: Induction of apoptosis in human SK-OV-3 cells assessed as early apoptotic cells at 0.2 uM incubated for 24 hrs by Annexin V-FITC/7-AAD staining based flow cytometry (reference value: 1.6 %); assay type: functional
A2780 [27] = experiment: Induction of apoptosis in human A2780 cells assessed as early apoptotic cells at 0.4 uM incubated for 24 hrs by Annexin V-FITC/7-AAD staining based flow cytometry (reference value: 1.9 %); assay type: functional
SK-OV-3 [28] = experiment: Induction of apoptosis in human SK-OV-3 cells assessed as viable cells at 0.8 uM incubated for 24 hrs by Annexin V-FITC/7-AAD staining based flow cytometry (reference value: 94.6 %); assay type: functional; settings: read-out: Activity
SK-OV-3 [29] = experiment: Antiproliferative activity against human SK-OV-3 cells assessed as decrease in ALDH positive cells at 0.4 uM incubated for 24 hrs by ALDEFLUOR staining based flow cytometry (reference value: 3.83 %); assay type: functional; set-up: scale not given: the % may be the effect or the level left
SK-OV-3 [30] = experiment: Induction of apoptosis in human SK-OV-3 cells assessed as necrotic cells at 0.8 uM incubated for 24 hrs by Annexin V-FITC/7-AAD staining based flow cytometry (reference value: 0.6 %); assay type: functional
A2780 [31] = experiment: Antiproliferative activity against human A2780 cells assessed as decrease in CD44 positive CD24 negative cells expression at 0.4 uM incubated for 24 hrs by FITC staining based flow cytometry (reference value: 28.13 %); assay type: functional; set-up: scale not given: the % may be the effect or the level left
SK-OV-3 [32] = experiment: Induction of apoptosis in human SK-OV-3 cells assessed as increase in caspase-8 activity at 0.4 uM incubated for 24 hrs by flow cytometry (reference value: 2.5 %); assay type: functional
A2780 [33] = experiment: Induction of apoptosis in human A2780 cells assessed as increase in caspase-8 activity at 0.8 uM incubated for 24 hrs by flow cytometry (reference value: 1.2 %); assay type: functional

CC1=C(O)C(=O)C=C2C1=CC=C1[C@@]2(C)CC[C@@]2(C)[C@@H]3C[C@](C)(C(=O)N4CCNCC4)CC[C@]3(C)CC[C@]12C
Activity (SK-OV-3 [1]): 74.58%
Activity (A2780 [2]): 17.97%
Activity (A2780 [3]): 66.7%
Activity (A2780 [4]): 9.8%
Activity (A2780 [5]): 1.7%
Activity (A2780 [6]): 85.2%
Activity (SK-OV-3 [7]): 6.8%
Activity (A2780 [8]): Dose-dependent-effect
Activity (SK-OV-3 [9]): 0.9%
Activity (A2780 [10]): 10.1%
Activity (SK-OV-3 [11]): 23.3%
Activity (SK-OV-3 [12]): 12.6%
Activity (A2780 [13]): 2.3%
Activity (SK-OV-3 [14]): 57.5%
Activity (SK-OV-3 [15]): 6.2%
Activity (SK-OV-3 [16]): 59.2%
Activity (SK-OV-3 [17]): 90.3%
inhibition [18]: Active
Activity (SK-OV-3 [19]): 74.7%
Activity (A2780 [20]): 3.7%
Activity (A2780 [21]): 1%
Activity (A2780 [22]): 1%
viability at 0.4 µM (A2780 [23]): 75.3%
Activity (A2780 [24]): 7.1%
Activity (SK-OV-3 [25]): 67%
Activity (SK-OV-3 [26]): 17.3%
Activity (A2780 [27]): 7.4%
viability at 0.8 µM (SK-OV-3 [28]): 48%
Activity (SK-OV-3 [29]): 1.3%
Activity (SK-OV-3 [30]): 1.4%
Activity (A2780 [31]): 2.93%
Activity (SK-OV-3 [32]): 36.7%
Activity (A2780 [33]): 12%
